Laboratory results taken from PubChem BioAssay AID256 (DTP/NCI, 2004).
“And” between values parts separate entries of the source, which are not always exact repeats. Identical values can stand only once. Toxic doses and inconclusive results are not listed.

Test system: CD2F1 mice, L1210 leukemia ip, survival T/C
Test: NCI In Vivo Anticancer Drug Screen. Data for tumor model L1210 Leukemia (intraperitoneal) in CD2F1 (CDF1) mice
Settings: endpoint: mean survival time, higher = longer survival
Procedure, shortened: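 Activity against a transplanted murine tumor was judged by comparing the compound group with a vehicle group. The outcome in the treated animals was divided by that in the controls.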

[1] = dose: 100.0 mg/kg/injection, schedule: Q01DX009 (ip), vehicle: Klucel (hydroxypropylcellulose) (HPC)
[2] = dose: 200.0 mg/kg/injection, schedule: Q01DX009 (ip), vehicle: Klucel (hydroxypropylcellulose) (HPC)

With `CC(C)(CO)C(O)C(=O)NCCS(=O)c1ccc(F)cc1` (configuration not stated) the T/C (dose: 100.0 mg/kg/injection, schedule: Q04DX003 (ip), vehicle: other) was 100 % of control, the T/C (dose: 200.0 mg/kg/injection, schedule: Q04DX003 (ip), vehicle: other) was 96 % of control and the T/C (dose: 400.0 mg/kg/injection, schedule: Q04DX003 (ip), vehicle: other) was 100 % of control.
For `CCCCN(CCCC)C(Cl)=Nc1ccccc1`, the T/C (dose: 6.25 mg/kg/injection, schedule: Q01DX009 (ip), vehicle: Klucel (hydroxypropylcellulose) (HPC)) was 95 % of control and 105 % of control, the T/C (dose: 12.5 mg/kg/injection, schedule: Q01DX009 (ip), vehicle: Klucel (hydroxypropylcellulose) (HPC)) was 92 % of control and 104 % of control and the T/C (dose: 25.0 mg/kg/injection, schedule: Q01DX009 (ip), vehicle: Klucel (hydroxypropylcellulose) (HPC)) was 94 % of control and 95 % of control. For the same compound, the T/C (dose: 50.0 mg/kg/injection, schedule: Q01DX009 (ip), vehicle: Klucel (hydroxypropylcellulose) (HPC)) was 94 % of control and 95 % of control, the T/C [1] was 93 % of control and the T/C [2] was 90 % of control.
In the case of `O=C([O-])[O-].O=S(=O)(O)O.[Co+3].[NH2-].[NH2-].[NH2-].[NH2-]`, the T/C (dose: 100.0 mg/kg/injection, schedule: Q04DX002 (ip), vehicle: saline with Tween-80) is reported as 100 % of control and the T/C (dose: 400.0 mg/kg/injection, schedule: Q04DX002 (ip), vehicle: saline with Tween-80) is reported as 107 % of control.
With `O=C(N/N=C/c1ccccc1O)c1ccccc1` the T/C (dose: 100.0 mg/kg/injection, schedule: Q01DX001 (ip), vehicle: Klucel (hydroxypropylcellulose) (HPC)) was 112 % of control, the T/C [1] was 94 % of control and the T/C (dose: 200.0 mg/kg/injection, schedule: Q01DX001 (ip), vehicle: Klucel (hydroxypropylcellulose) (HPC)) was 105 % of control. For the same compound, the T/C [2] was 104 % of control, the T/C (dose: 400.0 mg/kg/injection, schedule: Q01DX001 (ip), vehicle: Klucel (hydroxypropylcellulose) (HPC)) was 95 % of control and the T/C (dose: 400.0 mg/kg/injection, schedule: Q01DX009 (ip), vehicle: Klucel (hydroxypropylcellulose) (HPC)) was 102 % of control.
With `N=c1ccn(C2OC(CO)C(O)C2O)c(=O)n1O` (configuration not stated) the T/C (dose: 16.0 mg/kg/injection, schedule: Q01DX008 (ip), vehicle: saline) was 156 % of control, the T/C (dose: 16.0 mg/kg/injection, schedule: Q01DX008 (oral), vehicle: saline) was 110 % of control and the T/C (dose: 32.0 mg/kg/injection, schedule: Q01DX008 (ip), vehicle: saline) was 161 % of control. The T/C (dose: 64.0 mg/kg/injection, schedule: Q01DX008 (ip), vehicle: saline) was 170 % of control, the T/C (dose: 128.0 mg/kg/injection, schedule: Q01DX001 (ip), vehicle: saline) was 101 % of control and the T/C (dose: 128.0 mg/kg/injection, schedule: Q01DX001 (oral), vehicle: saline) was 96 % of control. For the same compound, the T/C (dose: 128.0 mg/kg/injection, schedule: Q01DX008 (ip), vehicle: saline) was 176 % of control, the T/C (dose: 128.0 mg/kg/injection, schedule: Q01DX008 (oral), vehicle: saline) was 156 % of control and the T/C (dose: 128.0 mg/kg/injection, schedule: Q01DX009 (ip), vehicle: saline) was 206 % of control. The T/C (dose: 128.0 mg/kg/injection, schedule: Q04DX003 (oral), vehicle: saline) was 103 % of control, the T/C (dose: 256.0 mg/kg/injection, schedule: Q01DX001 (ip), vehicle: saline) was 102 % of control and the T/C (dose: 256.0 mg/kg/injection, schedule: Q01DX001 (oral), vehicle: saline) was 100 % of control. The T/C (dose: 256.0 mg/kg/injection, schedule: Q01DX009 (ip), vehicle: saline) was 214 % of control, the T/C (dose: 256.0 mg/kg/injection, schedule: Q04DX003 (oral), vehicle: saline) was 110 % of control and the T/C (dose: 512.0 mg/kg/injection, schedule: Q01DX001 (ip), vehicle: saline) was 111 % of control. The T/C (dose: 512.0 mg/kg/injection, schedule: Q01DX001 (oral), vehicle: saline) was 103 % of control, the T/C (dose: 512.0 mg/kg/injection, schedule: Q01DX009 (ip), vehicle: saline) was 120 % of control and the T/C (dose: 512.0 mg/kg/injection, schedule: Q01DX009 (oral), vehicle: saline) was 167 % of control. The T/C (dose: 512.0 mg/kg/injection, schedule: Q04DX003 (ip), vehicle: saline) was 153 % of control, the T/C (dose: 1024.0 mg/kg/injection, schedule: Q01DX001 (ip), vehicle: saline) was 108 % of control and the T/C (dose: 1024.0 mg/kg/injection, schedule: Q01DX001 (oral), vehicle: saline) was 122 % of control. For the same compound, the T/C (dose: 1024.0 mg/kg/injection, schedule: Q01DX009 (ip), vehicle: saline) was 116 % of control, the T/C (dose: 1024.0 mg/kg/injection, schedule: Q01DX009 (oral), vehicle: saline) was 210 % of control and the T/C (dose: 1024.0 mg/kg/injection, schedule: Q04DX003 (ip), vehicle: saline) was 155 % of control. For the same compound, the T/C (dose: 1024.0 mg/kg/injection, schedule: Q04DX003 (oral), vehicle: saline) was 155 % of control.
